ChEMBL document CHEMBL1201862, “PubChem BioAssay data set” (2004)
Active and inactive are the calls of the source.

How the values were obtained:
[1] = HIV-1 Vif–A3G interaction blockers – biochemical, TR-FRET, GST-Vif 1-94, biotin-A3G peptide, dose response retest, primary screen (AID 1117319); format: functional;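 further: TR-FRET signal of purified GST-Vif binding a biotinylated A3G peptide; inhibitors lower the FRET signal by blocking Vif and A3G binding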
[2] = HGIII-sPLA2 enzyme inhibition potency – biochemical, QFRET, IC50, dose response (AID 743457);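 further: green fluorescence rise as the enzyme cleaves BODIPY PC-A2 in liposomes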
Streptococcus = assay: GAS UMAA2166 growth inhibition – luminescence, BacTiterGlo, counter-screen for streptokinase expression inhibitor project, dose response (AID 1915); format: functional, organism-based;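 further: potency for reduction of bacterial viability or growth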
[3] = tested on: Streptococcus sp. 'group A'; assay: Streptococcus pyogenes SK(-)GAS viability under kanamycin – luminescence, BacTiterGlo, confirmation, counter-screen for streptokinase expression inhibitor project, dose response (AID 1900); format: functional, organism-based
[4] = A549 cell cytotoxicity, dose response, cytotoxicity control, plate reader, cherry-pick, antagonist series (AID 743412); format: functional, cell-based
HEK293 = assay: EBV LMP1 TES2 canonical NF-kB signalling blockers – cell-based, HEK293, luciferase, cherry-pick, dose response (AID 588343); format: functional; details: Homo sapiens
[5] = blockade of melanocortin 4 receptor signaling – cell-based, plate reader, cherry pick, counter-screen for LGR2 antagonist project, dose response (AID 743444); format: functional;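 further: transfected HEK 293 cells stimulated with alpha-MSH peptide; potency of inhibitors of the alpha-MSH evoked signal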
[6] = blockers of bursicon-stimulated LGR2 cAMP reporter – cell-based, HEK293, CRE-luciferase reporter, cherry pick, set 2, dose response (AID 743343); format: functional;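 further: transfected cells were stimulated with diluted bursicon conditioned medium after compound addition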
[7] = target: T1, RNA-editing ligase 1, mitochondrial (Trypanosoma brucei brucei, UniProt P86926); assay: inhibition of trypanosome RNA editing ligase – biochemical, fluorescence, Trypanosoma brucei, dose response (AID 1117295); format: functional
T1 sequence (P86926 whole entry): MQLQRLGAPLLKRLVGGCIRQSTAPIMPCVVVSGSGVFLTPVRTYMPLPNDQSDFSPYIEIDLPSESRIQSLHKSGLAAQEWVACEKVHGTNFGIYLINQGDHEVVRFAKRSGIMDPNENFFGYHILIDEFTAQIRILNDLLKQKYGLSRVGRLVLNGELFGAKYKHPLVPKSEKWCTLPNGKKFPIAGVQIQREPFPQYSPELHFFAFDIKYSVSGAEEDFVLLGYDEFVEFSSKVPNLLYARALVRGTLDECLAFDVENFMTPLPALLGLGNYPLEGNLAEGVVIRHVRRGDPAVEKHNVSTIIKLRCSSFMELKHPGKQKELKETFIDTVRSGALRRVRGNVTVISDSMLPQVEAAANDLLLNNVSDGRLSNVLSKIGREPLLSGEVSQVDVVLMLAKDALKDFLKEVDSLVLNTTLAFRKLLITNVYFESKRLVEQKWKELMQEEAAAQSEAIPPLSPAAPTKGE

[8] = target: Luciferin 4-monooxygenase (Photinus pyralis, UniProt P08659); assay: Counter Screen for Luciferase-based Assay Positives. [Related pubchem assays: 620, 618, 411 ]
Sequence of Luciferin 4-monooxygenase (P08659 whole entry): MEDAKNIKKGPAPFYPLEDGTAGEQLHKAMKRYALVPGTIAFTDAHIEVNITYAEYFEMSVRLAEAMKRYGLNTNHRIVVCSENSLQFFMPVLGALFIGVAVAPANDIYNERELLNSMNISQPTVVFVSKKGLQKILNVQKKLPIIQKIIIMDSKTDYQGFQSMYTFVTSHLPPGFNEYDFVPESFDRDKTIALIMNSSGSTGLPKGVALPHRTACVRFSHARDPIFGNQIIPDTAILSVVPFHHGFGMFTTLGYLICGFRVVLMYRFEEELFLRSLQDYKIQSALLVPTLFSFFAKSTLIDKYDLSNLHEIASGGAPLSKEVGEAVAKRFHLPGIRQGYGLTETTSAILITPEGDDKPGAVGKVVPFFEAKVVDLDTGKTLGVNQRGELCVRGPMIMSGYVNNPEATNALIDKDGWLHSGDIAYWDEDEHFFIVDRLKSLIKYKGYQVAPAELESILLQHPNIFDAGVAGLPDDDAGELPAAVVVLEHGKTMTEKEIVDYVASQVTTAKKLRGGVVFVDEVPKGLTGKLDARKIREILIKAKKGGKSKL

HT-1080 = assay: HT1080 cell viability loss – fluorescence readout (AID 620); format: functional, cell-based; details: Homo sapiens
Cytochrome P450 3A4 = Cytochrome P450 3A4 (Homo sapiens, UniProt P08684);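 further: CYP3A4 tested as one member of a cytochrome P450 panel screen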
Sequence of Cytochrome P450 3A4 (P08684 whole entry): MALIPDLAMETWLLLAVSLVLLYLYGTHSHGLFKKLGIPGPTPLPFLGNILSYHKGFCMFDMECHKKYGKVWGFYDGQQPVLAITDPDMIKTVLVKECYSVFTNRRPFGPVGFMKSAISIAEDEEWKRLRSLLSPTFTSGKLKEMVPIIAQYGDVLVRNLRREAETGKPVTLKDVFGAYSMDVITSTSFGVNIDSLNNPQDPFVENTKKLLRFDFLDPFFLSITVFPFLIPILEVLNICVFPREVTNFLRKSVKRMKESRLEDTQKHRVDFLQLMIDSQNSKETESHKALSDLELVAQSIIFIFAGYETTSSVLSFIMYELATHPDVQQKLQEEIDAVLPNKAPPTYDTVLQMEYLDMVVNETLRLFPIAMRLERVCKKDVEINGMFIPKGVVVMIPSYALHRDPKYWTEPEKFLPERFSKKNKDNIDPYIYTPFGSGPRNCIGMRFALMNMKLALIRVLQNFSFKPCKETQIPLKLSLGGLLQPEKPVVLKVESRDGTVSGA

Cytochrome P450 2D6 = Cytochrome P450 2D6 (Homo sapiens, UniProt P10635);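 further: CYP2D6 member of a cytochrome P450 panel assay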
Sequence of Cytochrome P450 2D6 (P10635 whole entry): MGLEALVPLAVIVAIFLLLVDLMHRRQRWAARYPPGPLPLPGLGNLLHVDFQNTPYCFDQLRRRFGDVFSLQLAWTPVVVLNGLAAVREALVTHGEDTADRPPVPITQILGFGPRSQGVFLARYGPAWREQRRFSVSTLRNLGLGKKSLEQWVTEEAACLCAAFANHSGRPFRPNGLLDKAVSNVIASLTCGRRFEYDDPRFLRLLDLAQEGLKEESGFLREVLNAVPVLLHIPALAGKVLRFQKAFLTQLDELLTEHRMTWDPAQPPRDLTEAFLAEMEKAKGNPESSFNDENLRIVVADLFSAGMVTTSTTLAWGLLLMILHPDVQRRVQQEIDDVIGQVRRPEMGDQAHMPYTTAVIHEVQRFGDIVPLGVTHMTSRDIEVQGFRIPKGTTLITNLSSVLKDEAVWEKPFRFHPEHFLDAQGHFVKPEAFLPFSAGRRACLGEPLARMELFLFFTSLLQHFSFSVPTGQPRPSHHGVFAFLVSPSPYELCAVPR

Cytochrome P450 1A2 = target: T2, Cytochrome P450 1A2 (Homo sapiens, UniProt P05177);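 further: PubChem cytochrome P450 panel assay, CYP1A2 panel member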
T2 sequence (P05177 whole entry): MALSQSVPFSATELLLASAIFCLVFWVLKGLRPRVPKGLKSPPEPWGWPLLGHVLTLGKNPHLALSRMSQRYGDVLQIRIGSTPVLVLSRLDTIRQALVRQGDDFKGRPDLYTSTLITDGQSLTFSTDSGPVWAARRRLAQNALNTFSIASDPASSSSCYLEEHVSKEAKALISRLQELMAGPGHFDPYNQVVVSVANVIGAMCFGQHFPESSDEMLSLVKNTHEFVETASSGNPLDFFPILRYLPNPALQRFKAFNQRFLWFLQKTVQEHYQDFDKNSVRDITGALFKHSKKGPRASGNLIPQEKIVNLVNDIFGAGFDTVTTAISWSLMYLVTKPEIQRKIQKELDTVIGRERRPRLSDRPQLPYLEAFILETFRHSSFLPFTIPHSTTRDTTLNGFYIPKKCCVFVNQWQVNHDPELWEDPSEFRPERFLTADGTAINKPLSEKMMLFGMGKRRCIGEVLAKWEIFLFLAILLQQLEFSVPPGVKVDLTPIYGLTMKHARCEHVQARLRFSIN

[9] = target: T3, Heat shock factor protein 1 (Mus musculus, UniProt P38532); assay: enhancement of HSF1-driven luciferase signal – cell-based, NIH3T3, luminescence, dose retest, confirmation (AID 435004); format: functional;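 further: stress induced by proteasome inhibitor MG132 added 30 min after compound; luciferase reporter driven by HSF1 response element in NIH3T3 cells; actives raise luminescence as potentiators of the MG132 stress response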
T3 sequence (P38532 whole entry): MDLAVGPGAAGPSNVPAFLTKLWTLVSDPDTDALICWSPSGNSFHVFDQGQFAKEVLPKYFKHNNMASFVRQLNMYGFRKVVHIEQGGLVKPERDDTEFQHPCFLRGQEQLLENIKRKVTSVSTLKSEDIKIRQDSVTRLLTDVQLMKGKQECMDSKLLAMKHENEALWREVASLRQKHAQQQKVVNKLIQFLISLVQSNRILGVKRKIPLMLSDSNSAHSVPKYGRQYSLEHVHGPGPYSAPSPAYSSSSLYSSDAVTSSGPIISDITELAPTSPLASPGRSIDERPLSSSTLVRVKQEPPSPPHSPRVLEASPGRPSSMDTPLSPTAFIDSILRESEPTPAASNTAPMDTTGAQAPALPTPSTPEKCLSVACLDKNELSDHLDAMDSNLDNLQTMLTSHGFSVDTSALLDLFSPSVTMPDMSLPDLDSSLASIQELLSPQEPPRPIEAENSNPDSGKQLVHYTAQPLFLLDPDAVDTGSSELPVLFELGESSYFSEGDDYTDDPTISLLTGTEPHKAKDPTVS

[10] = target: T4, Corticotropin-releasing factor receptor 2/Corticotropin-releasing factor-binding protein (Homo sapiens, UniProt P24387+Q13324); assay: activators of CRF receptor 2 with binding protein – uHTS hits, confirmation (AID 602473); format: functional; details: read-out: EC50_Mean
T4 sequence (Q13324 whole entry): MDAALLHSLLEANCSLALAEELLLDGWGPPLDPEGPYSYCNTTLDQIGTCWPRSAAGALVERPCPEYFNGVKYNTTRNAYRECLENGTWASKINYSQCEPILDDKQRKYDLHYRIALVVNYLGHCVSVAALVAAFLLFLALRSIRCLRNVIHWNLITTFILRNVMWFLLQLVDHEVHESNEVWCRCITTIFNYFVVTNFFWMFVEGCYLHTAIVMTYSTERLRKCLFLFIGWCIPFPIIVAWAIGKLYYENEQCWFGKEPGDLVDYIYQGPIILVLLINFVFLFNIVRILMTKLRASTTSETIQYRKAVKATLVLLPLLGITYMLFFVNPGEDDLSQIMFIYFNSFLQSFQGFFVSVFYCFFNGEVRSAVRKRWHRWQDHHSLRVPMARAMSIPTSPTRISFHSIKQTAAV
T4 sequence (P24387 whole entry): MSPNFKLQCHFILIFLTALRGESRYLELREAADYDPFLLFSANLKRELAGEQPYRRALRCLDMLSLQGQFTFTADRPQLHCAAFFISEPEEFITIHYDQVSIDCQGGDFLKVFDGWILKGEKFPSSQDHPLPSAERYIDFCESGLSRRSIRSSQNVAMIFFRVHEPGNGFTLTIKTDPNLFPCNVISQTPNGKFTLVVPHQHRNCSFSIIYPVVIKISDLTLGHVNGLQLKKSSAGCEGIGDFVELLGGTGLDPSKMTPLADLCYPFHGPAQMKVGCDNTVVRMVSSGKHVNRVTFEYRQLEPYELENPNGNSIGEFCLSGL

[11] = target: T5, DNA repair protein RAD52 homolog (Homo sapiens, UniProt P43351); format: functional, biochemical
T5 sequence (P43351 whole entry): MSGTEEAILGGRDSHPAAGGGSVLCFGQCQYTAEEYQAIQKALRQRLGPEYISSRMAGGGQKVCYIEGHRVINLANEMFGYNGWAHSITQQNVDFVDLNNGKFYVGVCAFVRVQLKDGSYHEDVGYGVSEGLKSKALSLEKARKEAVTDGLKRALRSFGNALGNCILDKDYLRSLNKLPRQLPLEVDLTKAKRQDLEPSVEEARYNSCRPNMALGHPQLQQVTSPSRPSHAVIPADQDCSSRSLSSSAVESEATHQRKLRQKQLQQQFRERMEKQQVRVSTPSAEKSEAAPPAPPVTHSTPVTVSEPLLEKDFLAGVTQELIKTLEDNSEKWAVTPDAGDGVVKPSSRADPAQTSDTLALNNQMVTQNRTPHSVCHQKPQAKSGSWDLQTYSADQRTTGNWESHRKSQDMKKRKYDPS

[12] = target: T4, Corticotropin-releasing factor receptor 2/Corticotropin-releasing factor-binding protein; assay: Dose Response confirmation of uHTS hits for small molecule antagonists of the CRF-binding protein and CRF-R2 receptor complex.; format: functional; details: read-out: IC50_Mean
[13] = target: T6, Trace amine-associated receptor 1 (Homo sapiens, UniProt Q96RJ0); assay: Fluorescence-based cell-based high throughput dose response assay to identify agonists of the human trace amine associated receptor 1 (TAAR1).; format: functional
T6 sequence (Q96RJ0 whole entry): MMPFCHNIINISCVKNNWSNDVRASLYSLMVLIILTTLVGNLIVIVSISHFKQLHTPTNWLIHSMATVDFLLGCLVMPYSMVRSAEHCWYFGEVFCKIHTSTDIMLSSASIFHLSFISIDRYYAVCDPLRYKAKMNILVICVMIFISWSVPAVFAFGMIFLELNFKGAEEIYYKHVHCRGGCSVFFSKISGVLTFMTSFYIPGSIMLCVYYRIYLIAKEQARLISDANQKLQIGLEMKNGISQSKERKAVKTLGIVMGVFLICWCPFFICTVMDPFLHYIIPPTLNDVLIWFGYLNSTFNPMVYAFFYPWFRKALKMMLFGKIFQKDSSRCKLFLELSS

cells [14] = format: functional, cell-based
cells [15] = format: functional, cell-based; remark: listed apart in the source
[16] = target: T6, Trace amine-associated receptor 1; assay: Counterscreen for agonists of the human trace amine associated receptor 1 (hTAAR1): Fluorescence-based cell-based high throughput dose response assay to identify hTAAR1 agonist that also desensitize TAAR1 receptor response.; format: functional
Paired box protein Pax-8 = Paired box protein Pax-8 (Homo sapiens, UniProt Q06710); assay: PAX8 transcriptional activity inhibition in RMG-I – RMG-I cells, luciferase, cherry-pick, dose response (AID 687027); format: functional, cell-based;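 further: luciferase reporter driven by Pax8 target thyroperoxidase promoter measured by SteadyGlo luminescence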
Sequence of Paired box protein Pax-8 (Q06710 whole entry): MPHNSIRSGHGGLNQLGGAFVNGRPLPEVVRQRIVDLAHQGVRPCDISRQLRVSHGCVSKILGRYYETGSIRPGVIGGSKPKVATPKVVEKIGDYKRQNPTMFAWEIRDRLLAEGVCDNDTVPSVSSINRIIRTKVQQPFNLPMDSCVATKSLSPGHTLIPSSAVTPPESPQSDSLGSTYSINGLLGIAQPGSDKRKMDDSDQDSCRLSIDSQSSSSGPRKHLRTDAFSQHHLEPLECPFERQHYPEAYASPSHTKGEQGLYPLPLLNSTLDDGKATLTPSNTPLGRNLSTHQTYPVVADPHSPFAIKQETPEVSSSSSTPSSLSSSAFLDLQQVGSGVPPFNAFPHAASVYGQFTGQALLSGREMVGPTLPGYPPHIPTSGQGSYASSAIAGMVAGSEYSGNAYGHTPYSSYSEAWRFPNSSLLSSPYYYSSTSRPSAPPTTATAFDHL

[17] = IGROV1 cell killing – plate reader, dry powder samples, PAX8 inhibitor project, dose response (AID 743043); format: functional, cell-based; details: IGROV-1
[18] = potency of ADAM10 substrate cleavage blockers – biochemical, QFRET, dose response (AID 743254);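 further: ADAM10 enzyme with the DM2 quenched FRET peptide as substrate; EDANS fluorescence gain as the protease cuts the substrate; inhibitor potency against ADAM10 proteolytic activity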
[19] = target: T7, Disintegrin and metalloproteinase domain-containing protein 17 (Homo sapiens, UniProt P78536); assay: exosite inhibitors of ADAM17, dose response, biochemical (AID 743260)
T7 sequence (P78536 whole entry, the tested form may be a part): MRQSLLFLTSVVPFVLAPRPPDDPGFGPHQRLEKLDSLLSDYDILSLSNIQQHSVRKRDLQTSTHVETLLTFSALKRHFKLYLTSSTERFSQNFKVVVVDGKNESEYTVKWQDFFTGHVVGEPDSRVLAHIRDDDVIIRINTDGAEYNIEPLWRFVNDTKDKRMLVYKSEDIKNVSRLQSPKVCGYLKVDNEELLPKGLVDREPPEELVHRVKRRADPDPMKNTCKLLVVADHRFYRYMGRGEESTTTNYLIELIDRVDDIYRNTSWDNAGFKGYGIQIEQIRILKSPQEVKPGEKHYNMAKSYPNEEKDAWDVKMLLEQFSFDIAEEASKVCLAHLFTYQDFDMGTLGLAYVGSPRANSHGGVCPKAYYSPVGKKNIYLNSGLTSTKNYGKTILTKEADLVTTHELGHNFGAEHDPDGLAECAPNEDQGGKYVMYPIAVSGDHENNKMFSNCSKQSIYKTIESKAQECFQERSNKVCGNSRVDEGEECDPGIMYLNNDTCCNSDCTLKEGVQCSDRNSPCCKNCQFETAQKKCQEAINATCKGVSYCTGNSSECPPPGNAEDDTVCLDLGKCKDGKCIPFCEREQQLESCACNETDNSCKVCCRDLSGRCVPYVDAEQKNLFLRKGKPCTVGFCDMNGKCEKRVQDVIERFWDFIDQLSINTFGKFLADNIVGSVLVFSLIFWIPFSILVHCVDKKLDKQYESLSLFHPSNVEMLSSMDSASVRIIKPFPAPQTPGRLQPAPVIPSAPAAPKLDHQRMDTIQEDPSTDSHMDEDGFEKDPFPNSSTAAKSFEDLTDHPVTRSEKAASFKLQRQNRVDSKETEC

[20] = target: T7, Disintegrin and metalloproteinase domain-containing protein 17; assay: inhibition of ADAM17 substrate cleavage – biochemical, quenched FRET substrate, counter-screen for ADAM10 exosite inhibitor project, dose response (AID 743253)

## O=C(NCc1ccc(Cl)cc1)c1ccccc1Oc1ccccc1
[1]
  IC50: > 100 µM (active)

## Cc1cc(C)c2nc(NNC(=O)c3ccc(S(=O)(=O)N4CCCCC4)cc3)sc2c1
[2]
  IC50: 19 µM (inactive)
Streptococcus
  EC50: 4.91 µM (active)
[3]
  EC50: 1.92 µM (active)

## CC(=O)c1ccc(NC(=O)c2noc3c2CCC3)cc1
[4]
  AC50: > 52 µM (inactive)
HEK293
  AC50: 1.92 µM (active)
[5]
  AC50: 3.68 µM (active)
[6]
  AC50: 2.77 µM (active)

## COc1cc(CN(CCN(C)C)Cc2ccccc2)ccc1OCc1ccccc1
[7]
  IC50: > 96.6 µM (inactive)

## COCCn1c(C)cc(C(=O)CSc2nnc3ccccn23)c1C
[4]
  AC50: > 52 µM (inactive)
HEK293
  AC50: 2.88 µM (active)
[8]
  EC50: < 0.2 µM (active)
[5]
  AC50: 3.66 µM (active)
[6]
  AC50: 4.03 µM (active)
HT-1080
  EC50: > 50 µM (not active)

## S=C(Nc1cccc(Cl)c1)NC1CCCCC1
Cytochrome P450 3A4
  AC50: 15.8 µM (inconclusive)
Cytochrome P450 2D6
  AC50: 44.7 µM (inconclusive)
[1]
  IC50: > 100 µM (active)
Cytochrome P450 1A2
  AC50: 17.8 µM (inconclusive)

## C=CCNC(=S)NNC(=O)c1cccn(Cc2ccc(Cl)c(Cl)c2)c1=O
[9]
  EC50: > 260 µM (inactive)
[2]
  IC50: > 122 µM (inactive)

## CC(=O)c1cccc(Nc2cc(C)nc3c(C)cccc23)c1
[10]
  EC50: > 53 µM (inactive)
[11]
  AC50: 21.4 µM (active)
[12]
  IC50: > 47.1 µM (inactive)

## O=C(Nc1nccs1)c1[nH]cnc1C(=O)N1CCc2ccccc2C1
[13]
  EC50: 0.858 µM (active)
Cells [14]
  EC50: > 29.9 µM (inactive)
Cells [15]
  IC50: > 29.9 µM (inactive)
[16]
  IC50: 4.95 µM (active)

## Cc1cc(NC(=O)CSc2nnc(-c3ccoc3C)n2N)no1
[1]
  IC50: > 100 µM (active)

## COc1cccc(CNc2nc(NCc3ccccc3)nc3ccsc23)c1
[7]
  IC50: > 96.6 µM (inactive)

## O=C(N[C@@H](Cc1cccnc1)C(=O)N1CCC[C@H]1C(=O)NCCc1ccccc1Cl)c1cccs1
[13]
  EC50: 8.12 µM (active)
Cells [14]
  EC50: > 29.9 µM (inactive)
Cells [15]
  IC50: > 29.9 µM (inactive)
[16]
  IC50: 14.4 µM (inactive)

## Cc1ccc(S(=O)(=O)Nc2ccc3c(c2)C(=O)N([C@H](C)CO)C[C@@H](C)[C@H](CN(C)S(=O)(=O)c2ccc(C)cc2)OCCCC[C@H](C)O3)cc1
Paired box protein Pax-8
  AC50: 9.07 µM (active)
[17]
  AC50: 51.4 µM (active)

## CCN(CC)c1ccc(C=NNC(=O)c2cc(-c3ccc(C)c(C)c3)[nH]n2)c(O)c1
[2]
  IC50: > 122 µM (inactive)

## Cc1ccccc1NC(C)C(=O)N/N=C/c1ccccc1OCc1cccc(Br)c1 (centres undefined)
[18]
  IC50: > 69.5 µM (inactive)
[19]
  IC50: > 69.5 µM (inactive)
[20]
  IC50: > 69.5 µM (inactive)

## Cc1ccsc1/C=N\Nc1cnnc(O)c1Cl
[13]
  EC50: 2.16 µM (active)
Cells [14]
  EC50: > 29.9 µM (inactive)
Cells [15]
  IC50: > 29.9 µM (inactive)
[16]
  IC50: 8.29 µM (active)
